Measurements as given in US11802120B2, “Fused cyclic urea derivatives as CRHR2 antagonist” (RaQualia Pharma Inc., priority 2018, dated 2023).
pIC50: −log10 of the molar value.

Target: T1, human CRHR2-alpha (Homo sapiens, UniProt Q13324)
T1 sequence (Q13324 1-411): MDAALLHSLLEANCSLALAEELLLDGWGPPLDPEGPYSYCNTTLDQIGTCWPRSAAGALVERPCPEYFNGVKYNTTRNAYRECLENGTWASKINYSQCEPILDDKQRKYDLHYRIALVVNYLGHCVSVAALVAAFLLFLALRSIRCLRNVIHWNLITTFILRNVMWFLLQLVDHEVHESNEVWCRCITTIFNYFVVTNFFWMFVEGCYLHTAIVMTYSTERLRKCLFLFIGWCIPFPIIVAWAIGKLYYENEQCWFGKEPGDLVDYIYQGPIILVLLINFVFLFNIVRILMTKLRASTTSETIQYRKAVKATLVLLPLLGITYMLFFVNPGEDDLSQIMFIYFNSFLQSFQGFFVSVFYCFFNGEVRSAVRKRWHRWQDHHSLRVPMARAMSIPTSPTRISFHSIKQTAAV
Assay: cAMP functional assay for human CRHR2 (LANCE Ultra cAMP, TR-FRET)
Type: cell-based
Details: CHO-K1 cells expressing human CRHR2-alpha, agonist human urocortin2 at EC80, cAMP; read-out: IC50 against CRHR2
Experimental: cAMP functional assay for human CRHR1 and CRHR2
The ability of the compounds of this invention to inhibit either CRHR2 or CRHR1 is assessed by 3′,5′-cyclic adenosine monophosphate (cAMP) production in cells using the LANCE Ultra cAMP assay kit (ParkinElmer), which are designed based on the homogeneous time-resolved fluorescence resonance energy transfer (TR-FRET) immunoassay.
CHO-K1 (Chinese hamster ovary) cells stably expressing either human CRHR2-alpha (DiscoveRX, Cat. 95-0048C2) or human CRHR1-beta (DiscoveRX, Cat. 95-0047C2) are grown in HAM's F12 media supplemented with 10% fetal bovine serum (FBS), 100 units/mL penicillin, 100 microg/mL hygromycin and 0.5 microg/mL geneticin at 37° C. in 5% CO2 humidified incubator to 80% confluence. After 7 hours starvation treatment in culture media containing 0.1% FBS, the cells are washed with Hanks balanced salt solution (HBSS) and cryopreserved.
For cAMP assay, frozen cells are thawed and washed with HBSS, followed by resuspended in assay buffer (HBSS containing 0.1% bovine serum albumin, 0.5 mM isobutylmethylxanthine and 5 mM Hepes, pH 7.4) at the appropriate concentration for the assay. The cell suspensions are plated on 384-well microplates (Greiner Bio-One) at a density of 4,000 cells per well. After preincubating the cells with various concentrations of the compounds for 30 min at 25° C., an assay buffer containing EC80 concentration of each agonist is added and the cells are incubated for 30 min at 25° C. Human urocortin2 (Peptide Institute) and CRF (Peptide Institute) are used as agonists for CRHR2 and CRHR1, respectively. For the termination of assay, europium-labeled cAMP tracer and ULight (registered trademark) dye labeled cAMP antibodies, both prepared with Lance-Ultra cAMP detection reagent (Perkin Elmer) are added in the plate and incubate for 60 min at 25° C. After incubation, TR-FRET signal is detected by EnVision plate reader (PerkinElmer). The IC50 values for compounds are calculated from dose-response curves by fitting the percent inhibition using XLfit (ID Business Solutions).

Row | pIC50 | Compound
1 | > 6.52 | CNC(=O)c1ccc(-n2c(=O)n(C[C@H]3CC[C@H](NC(=O)c4cc(Cl)cnc4C(F)F)CC3)c3c(F)cccc32)cn1 [Example 548, 5-(3-(((1r,4r)-4-(5-chloro-2-(difluoromethyl)nicotina-mido)cyclohexyl)methyt)-4-fluoro-2-oxo-2,3-dihydro-1H-benzo[d]imidazol-1-yl)-N-methylpicolinamide]
2 | > 6.52 | CNC(=O)c1ccc(-n2c(=O)n(C[C@H]3CC[C@H](NC(=O)c4cc(Cl)cnc4C(F)F)CC3)c3cc(OC)ccc32)cn1 [Example 528, 5-(3-(((1r,4r)-4-(5-chloro-2-(difluoromethyl)nicotinamido)cyclohexyl)methyl)-5-methoxy-2-oxo-2,3-dihydro-1H-benzo [d]imidazol-1-yl)-N-methylpicolinamide]
3 | > 6.52 | Cc1ncc(Cl)cc1C(=O)N[C@H]1CC[C@H](Cn2c(=O)n(-c3ccc(C4CCC4)nc3)c3ccccc32)CC1 [Example 279, 5-chloro-N-((1r,4r)-4-((3-(6-cyclobutylpyridin-3-yl)-2-oxo-2,3-dihydro-1H-benzo[d]imidazol-1-yl)methyl)cyclohexyl)-2-methylnicotinamide]
4 | > 6.52 | Cc1ccc(-n2c(=O)n(C[C@H]3CC[C@H](NC(=O)c4cc(Cl)cnc4C(F)F)CC3)c3cccnc32)c(Cl)c1 [Example 452, 5-chloro-N-((1r,4r)-4-((3-(2-chloro-4-methylphenyl)-2-oxo-2,3-dihydro-1H-imidazo[4,5-b]pyridin-1-yl)methyl)cyclo-hexyl)-2-(difluoromethyl) nicotinamide]
5 | > 6.52 | Cc1ncc(Cl)cc1C(=O)N[C@H]1CC[C@H](Cn2c(=O)n(-c3ccc(-c4cnn(C)c4)cc3)c3ccccc32)CC1 [Example 579, 5-chloro-2-methyl-N-((1r,4r)-4-((3-(4-(1-methyl-1H-pyrazol-4-yl)phenyl)-2-oxo-2,3-dihydro-1H-benzo[d]imidazol-1-yl)methyl)cyclo-hexyl)nicotinamide]
6 | > 6.52 | Cc1ncc(Cl)cc1C(=O)N[C@H]1CC[C@H](Cn2c(=O)n(-c3cccc(-n4cccn4)c3)c3ccccc32)CC1 [Example 541, N-((1r,4r)-4-((3-(3-(1H-pyrazol-1-yl)phenyl)-2-oxo-2,3-dihydro-1H-benzo[d]imidazol-1-yl)methyl)cyclohexyl)-5-chloro-2-methylnicotinamide]
7 | > 6.52 | Cc1csc(CNC(=O)c2ccc(-n3c(=O)n(C[C@H]4CC[C@H](NC(=O)c5cc(Cl)cnc5C)CC4)c4ccccc43)cn2)n1 [Example 180, 5-(3-(((1r,4r)-4-(5-chloro-2-methylnicotinamido)cyclo-hexyl)methyl)-2-oxo-2,3-dihydro-1H-benzo[d]imidazol-1-yl)-N-((4-methylthiazol-2-yl)methyl)picolinamide]
8 | > 6.52 | Cc1ncc(Cl)cc1C(=O)N[C@H]1CC[C@H](Cn2c(=O)n(-c3ccc(NC[C@@H]4CCCO4)nc3)c3ccccc32)CC1 [Example 109, 5-chloro-2-methyl-N-((1S,4r)-4-((2-oxo-3-(6-((((S)-tetrahydro-furan-2-yl)methyl)amino)pyridin-3-yl)-2,3-dihydro-1H-benzo[d]imidazol-1-yl)methyl)cyclohexyl)nicotinamide]
9 | > 6.52 | COc1ccc(C#N)c(-n2c(=O)n(C[C@H]3CC[C@H](NC(=O)c4cc(Cl)cnc4C(F)(F)F)CC3)c3ccccc32)c1 [Example 292, 5-chloro-N-((1r,4r)-4-((3-(2-cyano-5-methoxyphenyl)-2-oxo-2,3-dihydro-1H-benzo[d]imidazol-1-yl)methyl)cyclohexyl)-2-(trifluoromethyl)nicotinamide]
10 | > 6.52 | Cc1ncc(Cl)cc1C(=O)N[C@H]1CC[C@H](Cn2c(=O)n(-c3cncc(-c4cnco4)c3)c3ccccc32)CC1 [Example 485, 5-chloro-2-methyl-N-((1r,4r)-4-((3-(5-(oxazol-5-yl)pyridin-3-yl)-2-oxo-2,3-dihydro-1H-benzo[d]imidazol-1-yl)methyl)cyclohexyl)nicotinamide]
11 | > 6.52 | CNc1cnc(-n2c(=O)n(C[C@H]3CC[C@H](NC(=O)c4cc(Cl)cnc4C(F)(F)F)CC3)c3ccccc32)cn1 [Example 298, 5-chloro-N-((1r,4r)-4-((3-(5-(methylamino)pyrazin-2-yl)-2-oxo-2,3-dihydro-1H-benzo[d]imidazol-1-yl)methyl)cyclo-hexyl)-2-(trifluoromethyl) nicotinamide]
12 | > 6.52 | O=C(N[C@H]1CC[C@H](Cn2c(=O)n(-c3ccc(NCCO)nc3)c3ccc(F)cc32)CC1)c1cc(Cl)cnc1C(F)F [Example 713, 5-chloro-2-(difluoromethyl)-N-((1r,4r)-4-((6-fluoro-3-(6-((2-hydroxyethyl)amino)pyridin-3-yl)-2-oxo-2,3-di-hydro-1H-benzo[d]imidazol-1-yl)methyl)cyclohexyl) nicotinamide]
13 | > 6.52 | CNc1ccc(-n2c(=O)n(C[C@H]3CC[C@H](NC(=O)c4cc(Cl)cnc4C)CC3)c3ccccc32)cc1 [Example 646, 5-chloro-2-methyl-N-((1r,4r)-4-((3-(4-(methylamino)phenyl)-2-oxo-2,3-dihydro-1H-benzo[d]imidazol-1-yl)methyl)cyclohexyl)nicotinamide]
14 | > 6.52 | Cn1ccnc1-c1ccc(-n2c(=O)n(C[C@H]3CC[C@H](NC(=O)c4cc(Cl)cnc4C(F)F)CC3)c3ccccc32)cc1 [Example 567, 5-chloro-2-(difluoromethyl)-N-((1r,4r)-4-((3-(4-(1-methyl-1H-imidazol-2-yl)phenyl)-2-oxo-2,3-dihydro-1H-benzo[d]imidazol-1-yl)methyl)cyclo-hexyl)nicotinamide]
15 | > 6.52 | COc1ccc(Cn2c(=O)n(C[C@H]3CC[C@H](NC(=O)c4cc(Cl)cnc4C)CC3)c3cccnc32)c(OC)c1 [Example 251, 5-chloro-N-((1r,4r)-4-((3-(2,4-dimethoxybenzyl)-2-oxo-2,3-dihydro-1H-imidazo[4,5-b]pyridin-1-yl)methyl)cyclo-hexyl)-2-methylnicotinamide]
16 | > 6.52 | CNc1ccc(-n2c(=O)n(C[C@H]3CC[C@H](NC(=O)c4cc(Cl)cnc4C)CC3)c3ccc(F)cc32)cn1 [Example 625, 5-chloro-N-((1r,4r)-4-((5-fluoro-3-(6-(methylamino)pyridin-3-yl)-2-oxo-2,3-dihydro-1H-benzo[d]imidazol-1-yl)methyl)cyclohexyl)-2-methylnicotinamide]
17 | > 6.52 | CNc1ccc(-n2c(=O)n(C[C@H]3CC[C@H](NC(=O)c4cc(Cl)cnc4C(F)F)CC3)c3ccccc32)cn1 [Example 380, 5-chloro-2-(difluoromethyl)-N-((1r,4r)-4-((3-(6-(methyl-amino)pyridin-3-yl)-2-oxo-2,3-dihydro-1H-benzo[d]imidazol-1-yl)methyl)cyclo-hexyl)nicotinamide]
18 | > 6.52 | Cc1ncc(Cl)cc1C(=O)N[C@H]1CC[C@H](Cn2c(=O)n(-c3cccc4ncccc34)c3ccccc32)CC1 [Example 345, 5-chloro-2-methyl-N-((1r,4r)-4-((2-oxo-3-(quinolin-5-yl)-2,3-dihydro-1H-benzo[d]imidazol-1-yl)methyl)cyclo-hexyl)nicotinamide]
19 | > 6.52 | O=C(N[C@H]1CC[C@H](Cn2c(=O)n(-c3ccn4cncc4c3)c3ccccc32)CC1)c1cc(Cl)cnc1C(F)(F)F [Example 342, 5-chloro-N-((1r,4r)-4-((3-(imidazo[1,5-a]pyridin-7-yl)-2-oxo-2,3-dihydro-1H-benzo[d]imidazol-1-yl)methyl)cyclohexyl)-2-(tri-fluoromethyl)nicotinamide]
20 | > 6.52 | Cc1ncc(Cl)cc1C(=O)N[C@H]1CC[C@H](Cn2c(=O)n(-c3ccc4ncoc4c3)c3ccccc32)CC1 [Example 153, N-((1r,4r)-4-((3-(benzo[d]oxazol-6-yl)-2-oxo-2,3-dihydro-1H-benzo[d]imidazol-1-yl)methyl)cyclo-hexyl)-5-chloro-2-methylnicotinamide]
21 | > 6.52 | COc1cc(-n2c(=O)n(C[C@H]3CC[C@H](NC(=O)c4cc(Cl)cnc4C)CC3)c3ccccc32)cnc1OC [Example 118, 5-chloro-N-((1r,4r)-4-((3-(5,6-dimethoxypyridin-3-yl)-2-oxo-2,3-dihydro-1H-benzo[d]imidazol-1-yl)methyl)cyclo-hexyl)-2-methylnicotinamide]
